Data reported in US5364615A (priority 1992, dated 1994).

Tests used:
Pneumocystis carinii [1] = assay: Randomized clinical trial of PCP prophylaxis (Example 8); assay type: in vivo, human
Pneumocystis carinii [2] = details: cited from earlier work
Pneumocystis carinii [3] = details: in vivo; cited from earlier work
[4] = human, in vivo; cited from earlier work
[5] = Adverse reactions and toxicity during PCP therapy (Example 3); details: inhaled pretreatment; 9 patients

In the case of `Cc1cn([C@H]2C[C@H](N=[N+]=[N-])[C@@H](CO)O2)c(=O)[nH]c1=O` [zidovudine], the “reduction of PCP risk” value (Pneumocystis carinii [1]; AZT use, Cox models, with aerosolized pentamidine) is reported as “two-fold” and the mortality (Pneumocystis carinii [1]; participants who had taken zidovudine, on aerosolized pentamidine, never taken: 67%) is reported as 28%.

For `NCCC[C@](N)(C(=O)O)C(F)F` [DFMO, α-difluoromethylornithine], the clinical response (Pneumocystis carinii [2]; recent clinical studies) is listed as “some clinical response” and the “efficacy in rat PCP model” value (Pneumocystis carinii [3]) is listed as “hot efficacious”.

In the case of `COc1cc(NCc2ccc3nc(N)nc(N)c3c2C)cc(OC)c1OC` [trimetrexate], the “relapse rate within one month” value (Pneumocystis carinii [2]; human, in vivo) is listed as “relapse rates within one month appear to be high” and the adverse reactions [4] is listed as “Adverse reactions have been reported”.

For `CC(C)NCC(O)c1cc(O)cc(O)c1` (stereo not drawn) [metaproterenol], the “control of aerosol-related cough” value [5] was “in 9 patients cough was mild and controlled”.

In the case of `Nc1ccc(S(=O)(=O)c2ccc(N)cc2)cc1` [Dapsone, diaminodiphenylsulfone], the “failure rate for PCP” value (Pneumocystis carinii [2]; dapsone alone) is listed as “about 39%” and the “efficacy in rat PCP model” value (Pneumocystis carinii [3]) is listed as “effective”.
